Test results as given in the NIST ThermoML archive (doi:10.1016/j.jct.2008.03.015).
± gives the expanded uncertainty stated by the source.

Details: Crystal 1
With `CCCCCCCCCCCCCCCCO` [1-hexadecanol] the Normal melting temperature was 49.76 ± 0.62 °C. `CCCCCCCCCCCCO` [dodecan-1-ol] gave a Normal melting temperature of 24.07 ± 0.62 °C. Compound `CCCCCCCCCCCCCCCCCCO` [1-octadecanol] has a Normal melting temperature of 58.38 ± 0.62 °C.
